Measured values from article PMC8162404, “Proteomimetic surface fragments distinguish targets by function” (Chemical Science, 2020).
pKd: −log10 of the molar value.

Columns and labels:
[1] = target: T1, S100B (Homo sapiens, UniProt P04271); assay: Competition pull-down with native ligand RSK1 (689–735); type: binding; conditions: H14 library; competitor peptide 200 µM; read-out: Surface mapping KD (apparent), competition
T1 construct: made in house; host or cells: Escherichia coli BL21(DE3)
T1 sequence (P04271 1-92): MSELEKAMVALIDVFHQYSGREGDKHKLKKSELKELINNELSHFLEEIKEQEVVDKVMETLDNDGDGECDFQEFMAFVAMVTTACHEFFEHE

[2] = target: T2, Gal-1 (Homo sapiens, UniProt P09382); assay: Competition pull-down with lactose; type: binding; conditions: H14 library; lactose 10 mM; read-out: Surface mapping KD (apparent), competition
T2 construct: made in house; host or cells: E. coli BL21(DE3)
How it was run: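 His6-tagged proteins immobilized on Co-NTA resin at 64 µM final with 64-member LSM foldamer sublibraries (1 M each, as printed) in pH 7.4 HEPES/NaCl buffers (Ca2+/TCEP per target), 30 min RT; competitor peptides 200 µM final, lactose 10 mM for Gal-1. Bound fractions from LC-MS loss vs protein-free resin; KD assuming 1:1 binding.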

[3] = target: T3, CaM (Bos taurus, UniProt P62157); assay: Pull-down assay with immobilized protein and LSM libraries; type: binding, bovine; conditions: H14 library; 1:2 stoichiometry assumed; read-out: Surface mapping KD (apparent)
T3 construct: made in house; host or cells: E. coli BL21 (DE3)
How it was run: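 CaM buffer was 20 mM HEPES pH 7.4, 150 mM NaCl, 5 mM CaCl2. LSM sublibrary members ([…]) incubated 30 min, RT, with equimolar His-tagged protein on Co-NTA resin. HPLC-MS measured unbound probes; bound fraction relative to resin-only background gave dissociation constants.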

[4] = target: T4, RecQ-WH (Escherichia coli, UniProt P15043); assay: as above; design: species or system E. coli; conditions: H14 library; 1:1 binding assumed; read-out: Surface mapping KD (apparent)
T4 construct: coding for residues 408– 523 of E. coli RecQ; made in house; host or cells: E. coli BL21(DE3)
Description: Pull-down assays with immobilized test proteins and foldameric LSM libraries were carried out. Proteins were equilibrated with LSM probes, and equilibrium bound fractions (FB) were determined from the unbound fractions measured by HPLC-MS methods. Hits were corrected with background binding of the resin. The protocol allowed all binding events to equilibrate irrespective of affinity, specificity, and binding kinetics. This was essential to judge overall druggability and promiscuity. Importantly, the concentration of protein and the total concentration of foldameric LSMs were equimolar, which minimized competition between the probes. This experimental setup approximated independent binding of individual library members. Results were visualized as heat maps of dissociation constants (Fig. 3).
Pull-down assay and data analysis
Pull-down assay. LSM sublibraries were screened separately as previously described.(2) Experiments were performed in the following buffers: (i) 20 mM pH 7.4 HEPES, 150 mM NaCl, 5 mM CaCl2 for CaM; (ii) 50 mM pH 7.4 HEPES, 150 mM NaCl, 1 mM TCEP, 1 mM CaCl2 for S100 proteins; (iii) 20 mM pH 7.4 HEPES, 150 mM NaCl, 1 mM TCEP for Gal-1 and (iv) 20 mM pH 7.4 HEPES, 150 mM NaCl for RecQ-WH. Assays were performed in paper filter spin cups (Thermo Scientific) with sample volumes of 100 µl. Hexahistidine-tagged proteins were immobilized on previously washed Co-NTA resin (TALON, Takara Bio USA, Inc., Mountain View, CA) in 64 µM final concentration. LSM sublibrary was added, in which each of the 64 library members were used at a concentration of 1 µM. Samples were incubated at room temperature for 30 min with shaking at 100 rpm. Then, samples were centrifuged at 1000 rpm for 2 min and washed with 100 µl pull-down buffer to remove unbound compounds.
The control experiments were performed using the same compounds and the resin but without the immobilized protein. In case of competitive assays, competitor peptides were added to LSM sublibrary samples in 200 µM final concentration. In the case of Gal-1, lactose (competitor) was used in a concentration of 10 mM. Experiments were performed at least twice. Mean […]
LC-MS methods and parameters. HPLC/ESI-MS analysis was used to characterize the samples from the pull-down assay. LC-MS analysis was performed with a Thermo Scientific Dionex UltiMate 3000 HPLC system interfaced to an LTQ ion trap mass spectrometer (Thermo Electron Corp., San Jose, CA, USA). Samples were injected onto an Aeris Widepore XB-C18 (250 x 4.6 mm) analytical HPLC column using gradient elution 5-80 % solution B during 25 minutes. For pull-down samples, eluent composition was 0.1% acetic acid in distilled water (Solution A) and 0.1% acetic acid in acetonitrile (solution B). Mass spectra were acquired in full scan mode from 200 to 2000 m/z range. For overlapping peaks, selective reaction monitoring (SRM) was […]
MS data analysis. Thermo Xcalibur 2.2 software was used for peak identification and integration. The majority of the foldameric fragments could be resolved independently via HPLC-MS/MS measurements based on molecular weight, MS fragmentation pattern and retention time. Peaks of some foldamers with β3-hIle or β3-hLeu in position R2 could not be resolved, these were integrated and averaged. In the processing method, each sample component was associated to a chromatographic peak based on previously identified mass (m/z) and retention time (ref (2) and Table S7-10). Using ICIS peak detection algorithm, the general detection and integration criteria were: smoothing points: 5, baseline window: 80, area noise factor: 5, peak noise factor: 10. Using these processing setups, all raw data files were reprocessed together and analyzed. Errors in peak identification during the automatic processing were corrected manually.
Calculation of the discussed parameters
1. Bound fractions (FB.) were calculated from the HPLC-MS intensity loss of the LSM probes compared to the control where no protein was immobilized to the resin: […]

[5] = target: T2, Gal-1; assay: as above; type: binding; conditions: H14 library; 1:1 binding assumed; read-out: Surface mapping KD (apparent)
How it was run: (§1)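 Buffers were HEPES pH 7.4 with 150 mM NaCl, plus 1 mM TCEP and 1 mM CaCl2 (50 mM HEPES) for S100A4 and S100B, 1 mM TCEP for Gal-1, and no additive for RecQ-WH. Immobilized protein at 64 µM was equilibrated 30 min with the LSM sublibrary, and unbound probes were measured by LC-MS.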

[6] = target: T5, S100A4 (Homo sapiens, UniProt P26447); assay: as above; type: binding; conditions: for pKd: H14 library, 1:1 binding assumed, read-out: Surface mapping KD (apparent)
T5 construct: made in house; host or cells: Escherichia coli BL21(DE3)
How it was run: as §1

[7] = target: T1, S100B; assay: as above; type: binding; conditions: for pKd: H14 library, 1:1 binding assumed, read-out: Surface mapping KD (apparent)
How it was run: as §1

[8] = target: T3, CaM; assay: Competition pull-down with native ligand TRPV1-Ct15; type: binding, bovine; conditions: H14 library; competitor peptide 200 µM; read-out: Surface mapping KD (apparent), competition
[9] = H14 probes selected for validation

T2 sequence (P09382 whole entry): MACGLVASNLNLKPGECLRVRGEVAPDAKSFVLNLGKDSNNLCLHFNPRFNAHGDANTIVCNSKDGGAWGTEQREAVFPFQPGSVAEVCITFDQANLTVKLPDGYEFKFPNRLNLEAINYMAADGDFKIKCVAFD
T5 sequence (P26447 whole entry): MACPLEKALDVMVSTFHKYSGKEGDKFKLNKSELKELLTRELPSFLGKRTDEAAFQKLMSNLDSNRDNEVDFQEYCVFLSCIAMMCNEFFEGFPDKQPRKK
T4 sequence (P15043 408-523): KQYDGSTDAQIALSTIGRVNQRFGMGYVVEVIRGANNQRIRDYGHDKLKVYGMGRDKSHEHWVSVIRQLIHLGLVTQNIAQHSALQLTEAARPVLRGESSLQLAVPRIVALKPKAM

| Compound | pKd [1] | pKd [2] | pKd [3] | pKd [4] | pKd [5] | pKd [6] | pKd [7] | pKd [8] | Binding ([6]; H14 probes) | Affinity class of probe (high, medium, low) in pull-down [6, 9] | Binding ([7]; H14 probes) | Affinity class of probe (high, medium, low) in pull-down [7, 9] |
| --- | --- | --- | --- | --- | --- | --- | --- | --- | --- | --- | --- | --- |
| CC(C)C[C@@H](CC(=O)N[C@H]1CCCC[C@@H]1C(N)=O)NC(=O)[C@H]1CCCC[C@@H]1NC(=O)[C@H]1CCCC[C@@H]1NC(=O)C[C@H](C)NC(=O)[C@H]1CCCC[C@@H]1N [H14 AL] | 3.50 | 3.57 | 4.89 | 3.40 | 3.90 | 5.15 | 3.97 | – | – | – | – | – |
| NC(=O)[C@H]1CCCC[C@@H]1NC(=O)C[C@H](Cc1ccccc1)NC(=O)[C@H]1CCCC[C@@H]1NC(=O)[C@H]1CCCC[C@@H]1NC(=O)C[C@H](CCC(=O)O)NC(=O)[C@H]1CCCC[C@@H]1N [H14 EF] | 3.90 | 3.37 | – | 3.62 | – | – | 3.32 | – | – | – | – | – |
| NCCCC[C@@H](CC(=O)N[C@H]1CCCC[C@@H]1C(N)=O)NC(=O)[C@H]1CCCC[C@@H]1NC(=O)[C@H]1CCCC[C@@H]1NC(=O)C[C@H](Cc1ccccc1)NC(=O)[C@H]1CCCC[C@@H]1N [H14 FK] | 3.41 | 3.82 | 5.40 | 3.37 | 3.81 | 3.85 | 4.20 | – | – | – | – | – |
| NC(=O)[C@H]1CCCC[C@@H]1NC(=O)C[C@H](CO)NC(=O)[C@H]1CCCC[C@@H]1NC(=O)[C@H]1CCCC[C@@H]1NC(=O)C[C@H](Cc1ccccc1)NC(=O)[C@H]1CCCC[C@@H]1N [H14 FS] | 3.37 | – | 4.82 | 3.52 | – | 3.95 | 3.44 | – | – | – | – | – |
| C[C@@H](O)[C@@H](CC(=O)N[C@H]1CCCC[C@@H]1C(N)=O)NC(=O)[C@H]1CCCC[C@@H]1NC(=O)[C@H]1CCCC[C@@H]1NC(=O)C[C@H](Cc1ccccc1)NC(=O)[C@H]1CCCC[C@@H]1N [H14 FT] | 3.48 | – | 4.96 | 3.66 | 3.46 | 3.87 | 3.56 | – | – | – | – | – |
| CC[C@H](C)[C@@H](CC(=O)N[C@H]1CCCC[C@@H]1C(=O)N[C@H]1CCCC[C@@H]1C(=O)N[C@H](CC(=O)N[C@H]1CCCC[C@@H]1C(N)=O)Cc1ccc(O)cc1)NC(=O)[C@H]1CCCC[C@@H]1N [H14 IY] | 3.81 | – | 4.82 | 3.52 | 3.59 | 4.70 | 4.13 | – | – | – | – | – |
| CSCC[C@@H](CC(=O)N[C@H]1CCCC[C@@H]1C(N)=O)NC(=O)[C@H]1CCCC[C@@H]1NC(=O)[C@H]1CCCC[C@@H]1NC(=O)C[C@H](CCCCN)NC(=O)[C@H]1CCCC[C@@H]1N [H14 KM] | 3.85 | – | 4.20 | 3.34 | – | 4.02 | 3.92 | 3.84 | – | – | – | – |
| CSCC[C@@H](CC(=O)N[C@H]1CCCC[C@@H]1C(=O)N[C@H]1CCCC[C@@H]1C(=O)N[C@H](CC(=O)N[C@H]1CCCC[C@@H]1C(N)=O)C(C)C)NC(=O)[C@H]1CCCC[C@@H]1N [H14 MV] | 3.44 | 3.66 | 5.52 | 3.53 | 3.75 | 4.68 | 3.93 | – | – | – | – | – |
| N=C(N)NCCC[C@@H](CC(=O)N[C@H]1CCCC[C@@H]1C(=O)N[C@H]1CCCC[C@@H]1C(=O)N[C@@H](CCCCN)CC(=O)N[C@H]1CCCC[C@@H]1C(N)=O)NC(=O)[C@H]1CCCC[C@@H]1N [H14 RK] | – | 3.49 | 4.66 | 3.31 | – | – | 4.66 | 3.60 | – | – | – | – |
| C[C@@H](O)[C@@H](CC(=O)N[C@H]1CCCC[C@@H]1C(=O)N[C@H]1CCCC[C@@H]1C(=O)N[C@H](CC(=O)N[C@H]1CCCC[C@@H]1C(N)=O)Cc1c[nH]c2ccccc12)NC(=O)[C@H]1CCCC[C@@H]1N [H14 TW] | 3.59 | 3.83 | 4.80 | 3.54 | 3.84 | 3.72 | 4.33 | – | does not | low | binds | medium |
| CC(C)[C@@H](CC(=O)N[C@H]1CCCC[C@@H]1C(=O)N[C@H]1CCCC[C@@H]1C(=O)N[C@H](CC(=O)N[C@H]1CCCC[C@@H]1C(N)=O)Cc1ccc(O)cc1)NC(=O)[C@H]1CCCC[C@@H]1N [H14 VY] | 3.78 | – | 4.52 | 3.94 | 3.50 | 4.30 | 3.96 | – | – | – | – | – |
| C[C@@H](CC(=O)N[C@H]1CCCC[C@@H]1C(N)=O)NC(=O)[C@H]1CCCC[C@@H]1NC(=O)[C@H]1CCCC[C@@H]1NC(=O)C[C@H](Cc1c[nH]c2ccccc12)NC(=O)[C@H]1CCCC[C@@H]1N [H14 WA] | 3.66 | – | 5.52 | 3.53 | – | 4.26 | 4.24 | 3.51 | – | – | – | – |
| C[C@@H](CC(=O)N[C@H]1CCCC[C@@H]1C(N)=O)NC(=O)[C@H]1CCCC[C@@H]1NC(=O)[C@H]1CCCC[C@@H]1NC(=O)C[C@H](Cc1ccc(O)cc1)NC(=O)[C@H]1CCCC[C@@H]1N [H14 YA] | 3.36 | – | 4.82 | 3.48 | 3.47 | 3.66 | – | 3.44 | – | – | – | – |
| N=C(N)NCCC[C@@H](CC(=O)N[C@H]1CCCC[C@@H]1C(N)=O)NC(=O)[C@H]1CCCC[C@@H]1NC(=O)[C@H]1CCCC[C@@H]1NC(=O)C[C@H](Cc1ccc(O)cc1)NC(=O)[C@H]1CCCC[C@@H]1N [H14 YR] | – | 3.51 | 4.96 | 3.38 | 3.42 | 3.93 | 4.17 | 3.93 | – | – | – | – |
